Source: US20180249709A1, “HERBICIDE COMPOSITIONS AND METHODS FOR CONTROLLING GROWTH OF PLANTS OF THE BUCKTHORN FAMILY” (priority 2016, published 2018)
“Also recorded” adds a separate entry of the source.

Legend:
Buckthorn seed radicles = test: Radicle elongation of germinated Buckthorn seeds over 7 days; format: in vivo; details: for radicle growth between treatments of various concentrations: MANOVA repeated measures
Method: From the seed germination study (above), the first five (5) germinated Buckthorn seeds from each group (same treatment, same site) were set aside for radicle elongation measurements (see FIG. 6). These five were placed together in new Petri plates between two new filter papers dosed with treatment (i.e. same filter setup & treatment as germination study). For each of the 75 germinated seeds (5×15 groups), the initial length of the emerged radicle was measured. The length of the radicle was then re-measured daily for a total of 7 days. […] Therefore, on Day 7 all radicles were also sacrificed and scanned on an Epson® flatbed scanner then analyzed off-label by WinRhizo™ software, which measured the full length as “Brother 1” of the inputted “root”. Using Microsoft Excel, a graph was created to show the average length of radicle 7 days after emergence with standard error, when measured by hand. WinRhizo Day 7 measurements were compared to hand-measured Day 7 measurements to check for accuracy. Another graph was created to show the average growth of the radicle over time. Statistics were done using JMP™ statistical software.

Buckthorn seeds = test: Seed germination of Buckthorn seeds on filter paper in Petri plates; format: in vivo
Method: Juglone was purchased from Sigma Aldrich and diluted in sterile water to a 10^−3 M stock solution for 24 hours at 40° C., then further diluted to obtain 10^−4, 10^−5 and 10^−6 M solutions. Seeds were previously collected from 3 different sites (Site 1: Iroquois Shoreline Woods Park in Oakville, Ontario, Canada; Site 2: Ignatius Jesuit Centre in Guelph, Ontario, Canada, and Site 3: Snyder Flats Conservation Area in Bloomingdale, Ontario, Canada) and then placed into cold stratification. For this experiment, seeds were removed from 40 day cold stratification and surface sterilization was done for 30 s in 3% hydrogen peroxide followed by two one minute sterile water rinses. Sheets of 90 mm filter paper were placed on the bottom of Petri plates, followed by 15 seeds, and then topped with another sheet of filter paper. A pipette then dispensed 2 ml of treatment or control onto each plate directly onto the top filter paper, thereby wetting the seeds and bottom filter paper as well. Five reps (plates) were done for each site at each treatment. Plates were then placed into Ziploc bags (to maintain humidity) and kept at 24° C. in the dark. Plates were checked every day for germination (i.e. emergence of the radicle). The number of germinated seeds per plate was recorded daily. Using Microsoft Excel, a graph was created to show the average number of germinated seeds per group with standard error. Statistics were done using JMP statistical software.

O=C1C=CC(=O)c2c(O)cccc21 [Juglone, 5-hydroxy-1,4-naphthalenedione]
colour / appearance of radicles vs control (Buckthorn seed radicles; 10^-3 M Juglone, Day 7): darker brown/black; also recorded: possible damaging effect | radicle elongation (Buckthorn seed radicles; 10^-3 M Juglone, Ignatius Jesuit Centre site, MANOVA, hand-measured): limited radicle elongation significantly | growth of radicles vs controls (Buckthorn seed radicles; 10^-3 M Juglone, all three sites, seven days, T-tests): significantly reduced growth; also recorded: significantly reduced radicle elongation | growth of radicles vs controls (Buckthorn seed radicles; 10^-4 M Juglone, Iroquois Shoreline Woods Park site and Snyder Flats Conservation Area site only, T-tests): significantly reduced growth | radicle growth among the treatments (net WinRhizo values) (Buckthorn seed radicles; ANOVA 2-way with replication, p=0.0005): significant difference in growth | radicle growth between treatments of various concentrations (Buckthorn seed radicles; Ignatius Jesuit Centre site, hand-measured, F(4,19)=0.73, p=0.0264): significant difference | radicle growth between treatments of various concentrations (Buckthorn seed radicles; Iroquois Shoreline Woods Park site, hand-measured, F(4,20)=0.38, p=0.1485): no significant difference | radicle growth between treatments of various concentrations (Buckthorn seed radicles; Snyder Flats Conservation Area site, hand-measured, F(4,19)=0.17, p=0.5339): no significant difference | growth of radicles vs controls (Buckthorn seed radicles; more dilute concentrations (than 10^-4 M), seed from any site): Growth reduction was not achieved | percentage of Buckthorn seeds that germinated, treatment vs control (Buckthorn seeds; 10^-5 M Juglone): consistently significantly lower | percentage of Buckthorn seeds that germinated, treatment vs control (Buckthorn seeds; 10^-6 M Juglone): consistently significantly lower; also recorded: significantly effective in preventing seed germination | overall effect on germination, difference between the treatments (Buckthorn seeds; Day 12, Least Squares Model, control and 10^-3 to 10^-6 M Juglone, F(4,64)=6.2, p=0.003): significant difference | percentage of Buckthorn seeds that germinated, trend with concentration (Buckthorn seeds; Juglone concentration increased above 10^-5 M): appeared to increase
